According to patent US7544497B2, “Compositions for manipulating the lifespan and stress response of cells and organisms” (President and Fellows of Harvard College, priority 2003, dated 2009):

Columns and labels:
[1] = system: lysine 382 of p53 in U2OS osteosarcoma cells; assay: p53 Ac-K382 Western blot after UV radiation; format: cell-based, human
C. elegans = C. elegans lifespan assay; format: in vivo
Description: Thus, the presence of resveratrol in the growth media of C. elegans extends their lifespan.
Bristol N2 (Caenorhabditis Genetics Center) was used as the wild-type strain. The sir-2.1 mutant strain was generated by backcrossing VC199 (sir-2.1 (ok434)) to N2 four times. Cultures were grown on standard NGM media and maintained on E. coli strain OP50. For the lifespan assays, synchronized animals were transferred to treatment plates as young adults (2 d after hatching, day 0 of assay), and were transferred to fresh treatment plates every 2 days for the first 6 to 8 days of the assay. […] For some lifespan trials, heat-killed OP50 were used as a food source. OP50 cultures were heated to 65° C. for 30 minutes, then pelleted and resuspended in 1/10 volume in S Basal supplemented with 10 mM MgSO4. In all assays, worms were monitored daily for mortality by gently probing with a platinum pick. Assays were performed at 24° C.

recombinant dSir2 = molecular target: T1, recombinant dSir2 (Drosophila melanogaster, UniProt Q9VK34); assay: dSir2 deacetylation assay (Fluor de Lys); format: biochemical, D. melanogaster; conditions: dose-dependent; 25 μM NAD+, 10 μM FdL
T1 sequence (Q9VK34 1-823): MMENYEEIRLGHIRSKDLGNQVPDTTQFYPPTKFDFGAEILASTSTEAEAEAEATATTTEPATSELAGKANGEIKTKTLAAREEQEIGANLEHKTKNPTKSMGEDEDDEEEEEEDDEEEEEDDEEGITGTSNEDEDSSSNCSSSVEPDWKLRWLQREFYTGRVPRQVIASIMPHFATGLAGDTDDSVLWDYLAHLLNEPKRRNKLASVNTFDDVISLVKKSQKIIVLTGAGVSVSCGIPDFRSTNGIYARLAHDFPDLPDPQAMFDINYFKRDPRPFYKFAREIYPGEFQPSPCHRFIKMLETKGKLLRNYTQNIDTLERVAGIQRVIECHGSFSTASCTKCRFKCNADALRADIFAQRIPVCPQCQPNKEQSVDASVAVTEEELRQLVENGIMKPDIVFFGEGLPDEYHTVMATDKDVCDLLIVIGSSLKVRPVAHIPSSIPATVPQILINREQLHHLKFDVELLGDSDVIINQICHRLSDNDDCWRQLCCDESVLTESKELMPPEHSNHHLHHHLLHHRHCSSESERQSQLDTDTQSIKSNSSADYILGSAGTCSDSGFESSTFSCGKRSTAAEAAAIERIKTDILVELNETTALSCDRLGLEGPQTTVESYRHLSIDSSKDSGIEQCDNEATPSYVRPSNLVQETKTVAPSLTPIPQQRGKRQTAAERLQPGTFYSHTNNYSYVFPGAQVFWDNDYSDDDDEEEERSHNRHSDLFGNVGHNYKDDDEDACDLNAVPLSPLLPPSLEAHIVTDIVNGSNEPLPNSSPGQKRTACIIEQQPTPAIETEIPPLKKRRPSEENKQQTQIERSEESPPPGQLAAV
Description: His6-tagged recombinant SIR-2.1 and dSir2 were purified from E. coli BL21(DE3) plysS cells harboring either pET28a-sir-2.1 or pRSETc-dSir2 plasmids. Cells were grown in LB medium containing kanamycin (50 μg/mL) for pET28a-sir-2.1 or ampicillin (100 μg/ml) and chloramphenicol (25 μg/ml) for pRSETc-dSir2 at 30° C. (dSir2) or 37° C. (SIR-2.1) to an OD600 of 0.6-0.8.
From 0.1 to 1 μg of SIR-2.1 and 1 μg of dSir2 were used per deacetylation assay as previously described with modifications (SIR-2.1: 200 μM NAD^+, 10 μM Fluor de Lys, FdL; dSir2: 25 μM NAD^+, 10 μM FdL)^26. […] Drosophila S2 cells were grown in Schneider media with fetal calf serum at 23-28° C., seeded at 9×10^4 cells/well, grown overnight and then exposed to 1 μM TSA, 500 μM polyphenols, and 200 μM FdL for 2 hr. […] Unless otherwise indicated all initial rate measurements were means of three or more replicates obtained with single incubation times, at which point 5% or less of the substrate initially present was deacetylated.

recombinant SIR-2.1 = molecular target: T2, recombinant SIR-2.1 (Caenorhabditis elegans, UniProt Q21921); assay: SIR-2.1 deacetylation assay (Fluor de Lys)
T2 sequence (Q21921 1-607): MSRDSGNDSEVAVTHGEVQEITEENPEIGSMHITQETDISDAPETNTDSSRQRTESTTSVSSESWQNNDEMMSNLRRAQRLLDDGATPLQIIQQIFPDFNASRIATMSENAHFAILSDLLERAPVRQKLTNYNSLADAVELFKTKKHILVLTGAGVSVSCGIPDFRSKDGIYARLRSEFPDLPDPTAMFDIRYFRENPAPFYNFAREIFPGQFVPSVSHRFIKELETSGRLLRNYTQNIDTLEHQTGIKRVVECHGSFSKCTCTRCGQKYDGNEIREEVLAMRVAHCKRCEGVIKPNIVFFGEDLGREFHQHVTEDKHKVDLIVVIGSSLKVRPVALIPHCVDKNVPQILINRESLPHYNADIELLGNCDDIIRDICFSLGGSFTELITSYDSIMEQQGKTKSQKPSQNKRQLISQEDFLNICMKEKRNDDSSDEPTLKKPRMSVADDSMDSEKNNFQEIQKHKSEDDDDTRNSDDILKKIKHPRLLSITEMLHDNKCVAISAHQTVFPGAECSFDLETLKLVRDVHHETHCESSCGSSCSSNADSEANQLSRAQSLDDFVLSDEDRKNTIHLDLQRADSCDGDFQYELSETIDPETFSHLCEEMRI

Oc1ccc(/C=C/c2cc(O)cc(O)c2)cc1 [Resveratrol, 3,5,4′-Trihydroxy-trans-stilbene]
level of Ac-K382 compared to untreated cells ([1]; 0.5 μM resveratrol, 4 hours pre-treatment, UV radiation): marked decrease
level of Ac-K382 at higher concentrations ([1]; >50 μM resveratrol): the effect was reversed
lifespan extension (C. elegans; sir-2.1 mutants, 100 μM, heat-killed OP50, not statistically significant): 5.2%
lifespan extension (C. elegans; sir-2.1 mutants, 100 μM, live OP50, P=0.81): 3.3%
lifespan extension (C. elegans; wild-type N2, 100 μM, live OP50): 12.6%
lifespan extension (up to) (C. elegans; wild-type worms, 100 μM, heat-killed or live E. coli): up to 15%
stimulation of deacetylation, dSir2 (up to) (recombinant dSir2): ≤ 2.4 fold
effect on Km of SIR-2.1 for NAD+ (recombinant SIR-2.1; 100 μM resveratrol, 10 μM Fluor de Lys): lowered
stimulation of deacetylation, SIR-2.1 (up to) (recombinant SIR-2.1; dose-dependent, 200 μM NAD+, 10 μM FdL): up to 2.5 fold
